The values below come from US20230391774A1, “Novel Compounds” (AC Immune SA, priority 2020, published 2023).

T2 sequence (P10636 561-689): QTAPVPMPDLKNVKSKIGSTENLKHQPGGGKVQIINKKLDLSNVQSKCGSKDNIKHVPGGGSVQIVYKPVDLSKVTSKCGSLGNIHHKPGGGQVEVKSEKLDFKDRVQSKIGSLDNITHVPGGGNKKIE
T1 sequence (P10636 1-441 isoform P10636-8): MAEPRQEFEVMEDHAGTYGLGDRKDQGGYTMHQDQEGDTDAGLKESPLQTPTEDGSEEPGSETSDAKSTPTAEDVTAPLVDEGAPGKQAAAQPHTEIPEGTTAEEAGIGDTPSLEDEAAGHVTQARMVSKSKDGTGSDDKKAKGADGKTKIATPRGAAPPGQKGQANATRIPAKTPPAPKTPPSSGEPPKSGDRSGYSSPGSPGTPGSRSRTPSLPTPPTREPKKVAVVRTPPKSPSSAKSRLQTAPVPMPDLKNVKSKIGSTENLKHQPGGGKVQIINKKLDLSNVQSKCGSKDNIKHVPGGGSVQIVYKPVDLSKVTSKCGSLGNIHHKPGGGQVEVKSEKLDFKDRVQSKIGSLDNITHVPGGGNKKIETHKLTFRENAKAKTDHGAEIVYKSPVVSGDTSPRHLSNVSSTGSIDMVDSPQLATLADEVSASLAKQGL

One assay addresses T1, flTau aggregates (longest isoform of human Tau, 2N4R) (Homo sapiens, UniProt P10636).
T1 construct: 35 μM of recombinant full-length (fl) Tau in phosphate-buffered saline (PBS) were aggregated; purchased Biotechne; host or cells: bacteria
The assay is described as follows: Full-length Tau (flTau) disaggregation assay by Thioflavin T (ThT). Type of assay: biochemical. The following applies: ThT fluorescence; 60 nM flTau aggregates, 30 minutes at RT; read-out: flTau disaggregation EC50. How it is done:
Full-Length Tau (flTau) Disaggregation Assay by Thioflavin T (ThT)
The longest isoform of human Tau (2N4R; 441 amino acids) was expressed in bacteria and purified (Biotechne). For the Tau disaggregation assay by ThT, 35 μM of recombinant full-length (fl) Tau in phosphate-buffered saline (PBS) were aggregated for 72 hours at 37° C. in presence of 35 μM of heparin (Sigma-Aldrich) and 10 mM of […] (Sigma-Aldrich) under shaking at 1000 RPM. Compound 1 was dissolved in anhydrous dimethyl sulfoxide (DMSO, Sigma-Aldrich) to reach a concentration of 2.5 mM. flTau aggregates and serial dilutions of compound 1 were mixed together in PBS (volume 50 μL) to a final concentration of 60 nM of flTau aggregates and from 20 to 0.0012 μM of Compound 1. The mixture was incubated for 30 minutes at room temperature (RT), then 40 μL of this mixture were transferred into a black 384-well plate assay (Perkin-Elmer) and mixed with 10 μL of 20 μM ThT in 250 mM glycine (both from Sigma-Aldrich) in PBS. Fluorescence (relative fluorescence units; RFU) was measured in monoplicate or duplicate on a Tecan reader (excitation: 440 nm; emission: 485 nm). Percentage of flTau disaggregation was then calculated and the half maximal effective concentration (EC50) was determined using GraphPad Prism version 8 (GraphPad Software) assuming a one-binding site fitting model, see Table 3 and Table 4.
Consider `Cn1cc(C2CCN(c3cnc4oc(N5CCOCC5)nc4c3)C2)c2cc(F)cnc21` (stereo not drawn) [Example 85, 6-(3-(5-fluoro-1-methyl-1H-pyrrolo[2,3-b]pyridin-3-yl)pyrrolidin-1-yl)-2-morpholinooxazolo[5,4-b]pyridine], for which the concentration for a half-maximal effect (EC50) is under 1 µM. Regarding `Cn1cc(C2CCN(c3cc4nc(N5CCOCC5)oc4cn3)C2)c2cc(F)cnc21` (stereo not drawn) [Example 86, 6-(3-(5-fluoro-1-methyl-1H-pyrrolo[2,3-b]pyridin-3-yl)pyrrolidin-1-yl)-2-morpholinooxazolo[5,4-c]pyridine], the concentration giving a half-maximal response (EC50) was 1 to 10 µM.

Consider `Cn1cc(C2CCN(c3cc4nc(N5CCOCC5)oc4cn3)C2)c2cc(F)cnc21` (stereo not drawn) [Example 87, 6-(3-(5-fluoro-1-methyl-1H-pyrrolo[2,3-b]pyridin-3-yl)pyrrolidin-1-yl)-2-morpholinooxazolo[5,4-c]pyridine], for which the concentration giving a half-maximal response (EC50) was in the range of 1 to 10 µM. Same read-out and setting: as for `Cn1cc(C2CCN(c3ccc4nc(N5CCOCC5)oc4c3)C2)c2cc(F)cnc21` (stereo not drawn) [Example 88, 6-(3-(5-fluoro-1-methyl-1H-pyrrolo[2,3-b]pyridin-3-yl)pyrrolidin-1-yl)-2-morpholinobenzo[d]oxazole], the figure is under 1 µM; as for `Cn1cc(C2CCN(c3ccc4nc(N5CCOCC5)oc4c3)C2)c2cc(F)cnc21` (stereo not drawn) [Example 89, 6-(3-(5-fluoro-1-methyl-1H-pyrrolo[2,3-b]pyridin-3-yl)pyrrolidin-1-yl)-2-morpholinobenzo[d]oxazole], under 1 µM; as for `Cn1cc(C2CCN(c3ccc4oc(N5CCOCC5)nc4n3)C2)c2cc(F)cnc21` (stereo not drawn) [Example 90, 5-(3-(5-fluoro-1-methyl-1H-pyrrolo[2,3-b]pyridin-3-yl)pyrrolidin-1-yl)-2-morpholinooxazolo[4,5-b]pyridine], under 1 µM. Consider `Cn1cc(C2CCN(c3ccc4oc(N5CCOCC5)nc4n3)C2)c2cc(F)cnc21` (stereo not drawn) [Example 91, 5-(3-(5-fluoro-1-methyl-1H-pyrrolo[2,3-b]pyridin-3-yl)pyrrolidin-1-yl)-2-morpholinooxazolo[4,5-b]pyridine], for which the EC50 was under 1 µM.

Consider `COc1cccc2c(C3CCN(c4ccc5oc(N6CCOCC6)nc5c4)CC3)n[nH]c12` [Example 92, 5-(4-(7-methoxy-1H-indazol-3-yl)piperidin-1-yl)-2-morpholinobenzo[d]oxazole], for which the EC50 lay in the range of 1 to 10 µM. For `Cc1cccc2[nH]nc(C3CCN(c4ccc5oc(N6CCOCC6)nc5c4)CC3)c12` [Example 93, 5-(4-(4-methyl-1H-indazol-3-yl)piperidin-1-yl)-2-morpholinobenzo[d]oxazole], the half-maximal effective concentration (EC50) was in the range of 1 to 10 µM. For `FC1CN(c2ccc3oc(N4CCOCC4)nc3c2)CCC1c1n[nH]c2ccccc12` (stereo not drawn) [Example 94, 5-(3-fluoro-4-(1H-indazol-3-yl)piperidin-1-yl)-2-morpholinobenzo[d]oxazole], the EC50 lay in the range of 1 to 10 µM. Consider `Cn1cc(C2CCN(c3ccc4sc(N5CCOCC5)nc4c3)C2)c2cc(F)cnc21` (stereo not drawn) [Example 95, 4-(5-(3-(5-fluoro-1-methyl-1H-pyrrolo[2,3-b]pyridin-3-yl)pyrrolidin-1-yl)benzo[d]thiazol-2-yl)morpholine], for which the concentration giving a half-maximal response (EC50) fell in the range of 1 to 10 µM. Turning to `COC1CCN(c2nc3cc(N4CCC(c5cn(C)c6ncc(F)cc56)C4)ccc3o2)CC1` (stereo not drawn) [Example 96, 5-(3-(5-fluoro-1-methyl-1H-pyrrolo[2,3-b]pyridin-3-yl)pyrrolidin-1-yl)-2-(4-methoxypiperidin-1-yl)benzo[d]oxazole], the EC50 is 1 to 10 µM. For the compound `COC1CCN(c2nc3cc(N4CCC(c5cn(C)c6ncc(F)cc56)C4)ccc3o2)CC1` (stereo not drawn) [Example 97, 5-(3-(5-fluoro-1-methyl-1H-pyrrolo[2,3-b]pyridin-3-yl)pyrrolidin-1-yl)-2-(4-methoxypiperidin-1-yl)benzo[d]oxazole], the EC50 fell in the range of 1 to 10 µM. On to `c1ccc2c(C3CCN(c4cnc5nc(N6CCOCC6)oc5c4)CC3)c[nH]c2c1` [Example 100, 6-(4-(1H-indol-3-yl)piperidin-1-yl)-2-morpholinooxazolo[4,5-b]pyridine], for which the EC50 was 1 to 10 µM. Consider `Cn1cc(C2CCN(c3ccc4oc(N5CCOCC5)nc4c3)CC2)c2ncc(F)cc21` [Example 105, 5-(4-(6-fluoro-1-methyl-1H-pyrrolo[3,2-b]pyridin-3-yl)piperidin-1-yl)-2-morpholinobenzo[d]oxazole], for which the EC50 lay in the range of 10 to 50 µM. For `c1ccc2c(C3CCN(c4ccc5nc(N6CCOCC6)sc5n4)CC3)n[nH]c2c1` [Example 106, 4-(5-(4-(1H-indazol-3-yl)piperidin-1-yl)thiazolo[5,4-b]pyridin-2-yl)morpholine], the EC50 was 1 to 10 µM.

For `C1=C(c2c[nH]c3ccccc23)CCN(c2ccc3oc(N4CCOCC4)nc3c2)C1` [Example 107, 5-(4-(1H-indol-3-yl)-3,6-dihydropyridin-1(2H)-yl)-2-morpholinobenzo[d]oxazole], the 50% effective concentration (EC50) is under 1 µM.

The assay is the same for the next values; noted with them: flTau disaggregation EC50, ThT fluorescence; 60 nM flTau aggregates, 30 minutes at RT.
As for `Cn1cc(C2CCN(c3ccc4oc(N5CC6CC(C5)O6)nc4c3)C2)c2cc(F)cnc21` (stereo not drawn) [Example 98, 3-(5-(3-(5-fluoro-1-methyl-1H-pyrrolo[2,3-b]pyridin-3-yl)pyrrolidin-1-yl)benzo[d]oxazol-2-yl)-6-oxa-3-azabicyclo[3.1.1]heptane], the 50% effective concentration (EC50) is 1 to 10 µM.

Still in this assay, the particulars now being: read-out: flTau disaggregation EC50; ThT fluorescence; 60 nM flTau aggregates, 30 minutes at RT.
With `Cn1cc(C2CCN(c3ccc4oc(N5CC6CC(C5)O6)nc4c3)C2)c2cc(F)cnc21` (stereo not drawn) [Example 99, 3-(5-(3-(5-fluoro-1-methyl-1H-pyrrolo[2,3-b]pyridin-3-yl)pyrrolidin-1-yl)benzo[d]oxazol-2-yl)-6-oxa-3-azabicyclo[3.1.1]heptane], the 50% effective concentration (EC50) is 1 to 10 µM.

A further assay addresses T2, Tau K18 fragment aggregates (amino acids 244 to 372 of human Tau441) (Homo sapiens, UniProt P10636).
T2 construct: encompassing amino acids 244 to 372 of the longest isoform (2N4R) of human Tau441; purchased Biotechne; host or cells: bacteria
The assay is described as follows: Tau K18 disaggregation assay by ThT. As to conditions: ThT fluorescence; 2 μM K18 aggregates, 30 minutes at RT. It counts as biochemical. On the procedure:
Tau K18 Disaggregation Assay by ThT
The Tau K18 fragment, encompassing amino acids 244 to 372 of the longest isoform (2N4R) of human Tau441, was expressed in bacteria and purified (Biotechne). For the K18 disaggregation assay by ThT, 35 μM of recombinant K18 in PBS were aggregated for 24 hours at 37° C. in presence of 25 μM of heparin (Sigma-Aldrich) and 10 mM of 1,4-Dithiothreito (DTT from Sigma-Aldrich) under shaking at 750 RPM. Compound 1 was dissolved in anhydrous dimethyl sulfoxide (DMSO, Sigma-Aldrich) to reach a concentration of 10 mM. K18 aggregates and serial dilutions of compounds were mixed together in PBS (volume 50 μL) to a final concentration of 2 μM of K18 aggregates and from 400 to 0.1 μM of Compound 1. The mixture was incubated for 30 minutes at room temperature (RT), then 40 μL of this mixture were transferred into a black 384-well plate assay (Perkin-Elmer) and mixed with 10 μL of 100 μM ThT in 250 mM glycine (both from Sigma-Aldrich) in PBS. Fluorescence (relative fluorescence units; RFU) was measured in monoplicate or duplicate on a Tecan reader (excitation: 440 nm; emission: 485 nm). Percentage of K18 disaggregation was then calculated and half maximal effective concentration (EC50) was determined using GraphPad Prism version 8 (GraphPad Software) assuming a one-binding site fitting model, see Table 3 and Table 4.
Compound `O=C(Nc1ccc2nc(N3CCOCC3)oc2c1)c1c[nH]c2ccccc12` [Example 14, N-(2-morpholinobenzo[d]oxazol-6-yl)-1H-indole-3-carboxamide] came in with a concentration giving a half-maximal response (EC50) of 10 to 50 µM.

The compound `O=C(Nc1ccc2nc(N3CCOCC3)oc2c1)c1c[nH]c2ncccc12` [Example 15, N-(2-morpholinobenzo[d]oxazol-6-yl)-1H-pyrrolo[2,3-b]pyridine-3-carboxamide] displayed an EC50 of 10 to 50 µM. Compound `O=C(Nc1ccc2nc(N3CCOCC3)oc2c1)c1n[nH]c2ccccc12` [Example 16, N-(2-morpholinobenzo[d]oxazol-6-yl)-1H-indazole-3-carboxamide] returned a half-maximal effective concentration (EC50) of 10 to 50 µM. `Cn1cc(C2CCN(c3ccc4oc(N5CCOCC5)nc4c3)CC2)c2cc(F)cnc21` [Example 23, 5-(4-(5-fluoro-1-methyl-1H-pyrrolo[2,3-b]pyridin-3-yl)piperidin-1-yl)-2-morpholinobenzo[d]oxazole] yielded a 50% effective concentration (EC50) of 10 to 50 µM. In turn, `Cn1cc(C2CCN(c3ccc4oc(N5CCOCC5)nc4c3)C2)c2cc(F)cnc21` (stereo not drawn) [Example 34, 5-(3-(5-fluoro-1-methyl-1H-pyrrolo[2,3-b]pyridin-3-yl)pyrrolidin-1-yl)-2-morpholinobenzo[d]oxazole] came in with a concentration for a half-maximal effect (EC50) of 1 to 10 µM. Turning to `c1ccc2c(C3CCN(c4cnc5sc(N6CCOCC6)nc5c4)CC3)n[nH]c2c1` [Example 42, 4-(6-(4-(1H-indazol-3-yl)piperidin-1-yl)thiazolo[5,4-b]pyridin-2-yl)morpholine], the 50% effective concentration (EC50) lay within 10 to 50 µM. Still for that read-out and setting: the result for `c1ccc2c(C3CCN(c4ccc5nc(N6CCOCC6)oc5c4)CC3)c[nH]c2c1` [Example 52, 6-(4-(1H-indol-3-yl)piperidin-1-yl)-2-morpholinobenzo[d]oxazole] reads 10 to 50 µM. `Fc1cnc2c(C3CCN(c4ccc5oc(N6CCOCC6)nc5c4)CC3)c[nH]c2c1` [Example 53, 5-(4-(6-fluoro-1H-pyrrolo[3,2-b]pyridin-3-yl)piperidin-1-yl)-2-morpholinobenzo[d]oxazole] yielded an EC50 of 1 to 10 µM.

For orientation: EC50 means the concentration giving half of the maximal effect.
